Measured values from US20160287536A1, “Composition” (THE UNIVERSITY OF NOTTINGHAM, priority 2013, published 2016).
Where two headings read alike, the source gives them in different places. One block for each compound: values may come before it.

Tests used:
[1] = tested on: sheep isolated rectal vein; assay: Wire myography, sheep isolated rectal vein (SRV); assay type: cell-based; details: SRV
Description: Sheep mesenteric tissue, from the distal sigmoid colon to the anus, was obtained from a local abattoir. The sheep tissue was delivered in a dry bag and stored at 4° C. until dissected. The bundle of sheep rectal vessels was dissected from its mesentery within four hours of arrival from the abattoir. The vascular bundle was then kept in the pre-oxygenated Krebs-Henseleit buffer solution at 4° C. until used (on the same day as a preferential method or on the following day after storage overnight). No experiments were conducted on tissue stored for more than 24 hours after dissection. The Krebs solution consisted of 118.4 mM NaCl, 4.7 mM KCl, 1.2 mM MgSO4, 1.2 mM KH2PO4, 1.25 mM CaCl2, 24.9 mM NaHCO3, and 11.1 mM glucose.
Before setting a wire myography experiment, the remaining loose connective tissue was meticulously removed from the rectal vessels. The internal diameter of sheep isolated rectal artery and vein was 450-650 μm and 500-1000 μm, respectively. Each 5-mm ring segment of the ‘clean’ vessels was then suspended between two 200-μm wire supports in an organ bath containing 20 ml Krebs-Henseleit buffer solution. The upper supporting wire was attached to an isometric force transducer, while the lower wire was fixed steadily to a clamped glass rod. The bath solution was maintained at 37° C., and continuously gassed with 95% O2 and 5% CO2. Isometric tension was continuously recorded using a PowerLab 4/25 via QUAD Bridge amplifier (ADInstruments, Inc, Australia).
After a 10-minute equilibration period, an initial tension of 8 gram weight (g wt) was gradually applied for an arterial segment and left to relax for 30 minutes. The final tension of SRA varied between 1.0 g wt and 2.8 g wt. For a venous segment, an initial tension of 1 g wt was applied and, 10 minutes later, the resting tension was finally re-adjusted to reach a tension of 0.5 g wt. Then the vein was left to relax for further 20 minutes. The final tension of SRV ranged from 0.08 to 0.25 g wt. Once the vascular segments were fully settled, the tissues were tested for contractile activity with 60 mM KCl on three occasions. The vascular contraction was allowed to reach maximum, which generally took about 1-4 minutes. Each KCl challenge was followed by two washouts of 37° C. Krebs solution and the tissues were allowed to rest for 20 minutes between the challenges. The maximum contraction (tension) produced by the third administration of 60 mM KCl was used as a reference contraction to which subsequent responses were compared. After the final (3rd) KCl challenge, the tissues were washed and left for 60 minutes before α-adrenoceptor agonist was administrated. To construct an agonist concentration-response curves (CRC), 0.3-0.4 log 10 increments of agonist solution was added e.g. at the agonist concentration of 100 nM, 200 nM, 500 nM, 1 μM, 2 μM, 5 μM, and so on. Each response was allowed to reach equilibrium or plateau before the next dose of agonist was added. The maximal response to the agonist was considered when no further increase in response occurred upon the addition of two or more consecutive doses of agonist.
In the case of the noradrenaline study, 10 μM cocaine was added into the organ bath 40 minutes prior to the administration of noradrenaline for inhibiting the uptake of noradrenaline by neural tissue within the vascular wall (re-uptake 1) (Westfall & Westfall, 2006 In Goodman & Gilman's the Pharmacological Basis of Therapeutics. eds Brunton, L. L., Lazo, J. S. & Paker, K. L. pp. 137-181. New York: McGraw Hill). Regarding KCl-induced vasoconstriction, the CRC was generated by the contractile response to 6 mM increments of KCl solution, starting from 0 mM to 60 mM.
Consecutive CRCs were generated to each agonist, separated by 60 minutes, and if there was no difference in the maximum response (Emax) and pEC50 (defined as the negative logarithm of the concentration required to produce 50% of the maximum response) then a paired CRC protocol was used throughout. […]

[2] = tested on: porcine isolated tail artery
Description: U46619 was added to produce a contraction equivalent to 60% of KCl followed by sufficient to forskolin to causes a relaxation back to baseline. Cumulative concentration response curves to brimondine and phenylephrine were elicited in the presence and absence of the combination of U4/For. Responses have been expressed a percent of the contraction to 60 mM KCl and represent the mean of 5-6 separate observations.

nitric oxide synthase = details: 100 μM; cited from earlier work
vascular preparations = details: 100 μM; cited from earlier work
α2-adrenoceptor [3] = assay: Saturation radioligand binding of [^3H]-RX821002 to sheep anorectal tissue membranes
Description: Fresh sheep anorectal tissues were dissected from whole buttock from sheep within four hours of slaughter. The buttocks were delivered in a dry bag and stored at 4° C. until dissected. The tissues used in this experiment included rectal smooth muscle (RSM), rectal mucosa (RM), anal mucosa (AM), internal anal sphincter (IAS), sheep rectal artery (SRA), sheep rectal vein (SRV), and the terminal branches of rectal vessels (TB). The dissected tissues were kept at −20° C. until used. Prior to starting an experiment, the tissue was removed from the freezer and allowed to defrost on ice. […] Non-specific binding was determined using an excessive amount of unlabelled specific receptor ligand. […] Three ml of scintillation fluid (PerkinElmer, UK) was subsequently added into each vial, and left at least 8 hours (preferably overnight) before processing for radioactivity measurement. The amount of radioactivity bound to the filters was measured using a liquid scintillation analyser (Tri-Carb 2100TR, PerkinElmer, UK). The radioactivity was reported as disintegrations per minute (dpm). […] Specific binding of the radioligand to the membranes was calculated by subtracting the non-specific binding from the total binding. Receptor density (Bmax) and ligand dissociation constant (Kd) were then calculated using the specific saturation binding curve of each experiment.

α2-adrenoceptor [4] = details: porcine vessels; cited from earlier work

Structure (SMILES): Brc1c(NC2=NCCN2)ccc2nccnc12 [UK14304, brimonidine]
contractile response [1]: concentration-dependent contractions | veins with concentration-dependent contraction ([1]; the rest <10% of the response to 60 mM KCl): 6 out of 12 | contractile responses in the presence of the combination of U46619 and forskolin [2]: enhanced

Structure (SMILES): CN(C)C(N)=NCCC[C@H](N)C(=O)O [ADMA, Asymmetric dimethyl arginine]
inhibition of nitric oxide synthase (nitric oxide synthase): inhibit nitric oxide synthase | effect on vasoconstrictor responses to phenylephrine (vascular preparations): enhance the vasoconstrictor responses to phenylephrine

Kd (α2-adrenoceptor [3]; sheep rectal arteries, read-out: Kd of radioligand for α2-adrenoceptor): 1.42 nM | Kd (α2-adrenoceptor [3]; sheep rectal vein and terminal branches of sheep rectal vessels, read-out: Kd of α2-adrenoceptor): ~0.3 nM
Structure (SMILES): COC1(C2=NCCN2)COc2ccccc2O1 (centres unmarked) [[^3H]-RX821002, 2-(2-methoxy-1,4-benzodioxan-2-yl)-2-imidazoline]
Kd (α2-adrenoceptor [4]): 1.3 to 2.2 nM
